Patent US12319752B2, “Heparin-binding cationic peptide self-assembling peptide amphiphiles useful against drug-resistant bacteria” (priority 2016, dated 2025)
Residues, ends and D or L forms follow the SMILES beside them. *: point of attachment. Palmitoyl = CCCCCCCCCCCCCCCC(=O)*

Columns and labels:
[1] = Cytotoxicity, MTS cell viability assay; format: cell-based, human; settings: human, human dermal fibroblasts (HDF, Detroit 551, ATCC CCL-110)
Procedure: (§1) To evaluate the cytotoxicity of the peptides, human dermal fibroblasts (HDF) were treated for 24 h, and cell viability was determined via MTS assays (FIG. 13).
(§2) Human dermal fibroblast cells (HDF, Detroit 551, ATCC #CCL-110) were cultured in Dulbecco's modified Eagle medium (DMEM; Fisher, Pittsburgh, PA) supplemented with 10% fetal bovine serum (FBS) and 1% penicillin/streptomycin for 24 h. All cells were cultured to 90% confluence in a 37° C., humidified, 5% CO2/95% air environment. Cells at passage numbers of 4-7 were used in these experiments.
(§3) The MTS cell viability assay kit (Promega, Madison, WI, USA) was used to determine cytotoxicity of the peptides. First, HDF cells were seeded on a 96-well plate at a cell density of 5,000 cells/well (equal to 15,385 cells/cm^2), and were incubated overnight for cell adhesion. After overnight incubation, the cell medium in each well was replaced by 100 μL of cell culture medium containing various concentrations of peptides (20 μM to 100 μM). The control samples were cells incubated in cell culture medium only. After 24 h, the treatment medium in each well was removed. The cells were washed with phosphate buffered saline (PBS, pH=7.4, Fisher, PA, USA) and 100 μL of fresh cell culture medium was added to each well, followed by the addition of 20 μL of the MTS reagent. After the cells were incubated for 2.5 h, the absorbance was measured at a wavelength of 490 nm by a spectrophotometer (SpectraMax M3, Molecular Devices, Molecular Devices, Sunnyvale, CA, USA). To estimate the cell numbers in each well, a standard curve expressing the linear correlation between different cell densities and optical densities (R^2>0.95) was plotted, and the cell numbers were determined with this standard curve from the OD490 value recorded in each sample. The cell viability of each sample was calculated by: Cell viability=[(cell density per mL of treated sample)/(cell density per mL of control sample)]×100%. Data were expressed by standard error of the mean (±S.E.M.) and N=3, *p<0.05 compared with control samples.

[2] = test system: human dermal fibroblasts (HDF); experiment: Cytotoxicity, MTS cell viability assay; format: cell-based
Procedure: as §1, §2, §3

S. aureus = experiment: Viable colony count assay (bactericidal effect, 4 h); format: cell-based, Staphylococcus aureus (ATCC #25923)
Procedure: The bactericidal effects of the peptides were examined using a viable colony count assay as well as the live/dead staining assay. For the viable colony count assay, bacteria were treated with peptides for 4 h and the resulting viable bacterial density of each sample was expressed by log10[CFU/mL]. For the Gram-positive bacteria tested, the decrease in bacterial density was dependent on the concentration of the ACA-PA (FIG. 8A). […] As for Gram-negative E. coli and MDR E. coli bacteria (FIG. 8B), the ACA nanorods, wherein the PA were added at a concentration above their CMC, had potent bactericidal effects. For example, the ACA nanorods at concentrations over 60 μM reduced the colony forming units of Gram-negative bacteria by about a five log unit reduction after 4 h compared with the untreated negative control sample.
The viable count assay was performed to quantify the bactericidal activity of each peptide. Stock solutions of peptides were diluted in 3% TSB media to concentrations ranging from 20 μM to 100 μM immediately before experiments. Heparin-ACA-PA were also prepared by mixing the ACA-PA stock solution with heparin (sodium salt from porcine intestinal mucosa, Sigma, St. Louis, MO) to 1:1, 1:2 and 1:3 weight ratios in water, and a final concentration of ACA-PA in the heparin-ACA-PA at each heparin weight ratio was adjusted to 80 μM for each experiment. The bacteria (10^6 CFU/mL) were incubated with peptides at 37° C. for 4 h. After incubation, serial dilutions of samples were plated on TSB agar and then incubated at 37° C. overnight. The colonies from each spot were manually counted, and the CFU number for each sample was determined. Experiments were conducted in triplicate and results were expressed as the log 10 values of the CFU number in each sample. Data were expressed by stand error of the mean (±S.E.M.) and N=3, *p<0.05 compared with control samples and #p<0.05 compared with bacteria treated with 40 μM of ACA-PA.

E. coli = experiment: Bacterial growth inhibition (growth curves, OD562, 20 h); format: cell-based, Escherichia coli (ATCC #25922)
Procedure: Gram-positive (S. aureus and MRSA) and Gram-negative (E. coli and MDR E. coli) bacteria were incubated with peptide concentrations ranging from 20 to 100 μM, and time-lapsed bacterial growth was monitored for 20 hours by determining the optical density at 562 nm (O.D. 562 nm). […] At the highest concentration tested (100 μM), the time to exponential growth phase of S. aurues was delayed by about 18 h (FIG. 5B), and was prolonged by almost 13 h for MRSA (FIG. 5A), while bacteria incubated without ACA-PA entered the exponential growth phase within 4 h. Gram-positive bacteria were also susceptible to the ACA-PA even below their CMC.
The MIC values of ACA-PA towards drug-resistant bacteria were determined after 24 h of incubation (Table 2).
This assay was performed to investigate the inhibitory effects of each peptide against Gram-positive Staphylococcus aureus (S. aureus, ATCC #25923) and methicillin-resistant S. aureus (MRSA, ATCC #43300), as well as Gram-negative Escherichia coli (E. coli, ATCC #25922), and multidrug-resistant E. coli (MDR E. coli, ATCC #BAA-2471). In all experiments, solutions of each peptide at the concentrations from 20 μM to 100 μM in 3% Tryptic Soy Broth (TSB) media were freshly prepared. A single colony of bacteria was isolated from a stock agar plate and cultured overnight in 4 mL of 3% TSB on a shaking incubator set at 200 rpm and 37° C. The bacteria culture was adjusted to an optical density at 562 nm (OD562) to about 0.52 (10^9 cells/mL), and the resulting bacteria suspension was subsequently diluted to about 10^6 colony forming units (CFU) per mL in each sample. The control samples were bacteria incubated in TSB media without peptides. The bacteria were incubated inside a spectrophotometer (Spectra-Max Paradigm, Molecular Devices, Sunnyvale, CA) at 37° C. under static conditions for 20 h, and the bacterial growth curves were measured in terms of turbidity at OD562 every 2 minutes. The normalized OD562 values of samples were calculated by subtracting the […].

## CCCCCCCCCCCCCCCC(=O)N[C@H](C(=O)N[C@H](C(=O)N[C@H](C(=O)N[C@H](C(=O)N[C@@H](CCCCN)C(=O)N[C@@H](CCCCN)C(=O)N[C@@H](CCCCN)C(=O)N[C@@H](CCCCN)C(=O)NCC(=O)N[C@@H](C)C(=O)N[C@@H](CCCCN)C(=O)N[C@@H](CCCCN)C(=O)N[C@@H](C)C(=O)N[C@@H](CCCNC(=N)N)C(=O)N[C@@H](C)C(=O)N[C@@H](C)C(=O)N[C@@H](CCCCN)C(=O)N[C@@H](CCCCN)C(=O)N[C@@H](C)C(=O)N[C@@H](CCCNC(=N)N)C(=O)N[C@@H](C)C(=O)O)C(C)C)C(C)C)C(C)C)C(C)C [ACA-PA, C16-V4K4G(AKKARA)2 (SEQ ID NO: 7)] (Palmitoyl-VVVVKKKKGAKKARAAKKARA-OH; N-terminus and C-terminus assumed)
[1]
  viability at 24 h, 100 µM: > 50%
[2]
  cytotoxicity: moderate cytotoxicity
S. aureus; S. aureus (Gram-positive), 60 to 100 μM
  decrease in bacteria density: ~100 fold
S. aureus; S. aureus, over 80 μM, 4 h
  decline in bacteria density: 100 fold
  decrease of colony forming units: two
E. coli; 20 to 100 μM, 20 h
  bacterial growth inhibition: remarkably inhibited the proliferation
E. coli; concentrations higher than the CMC (60 μM to 100 μM)
  bacterial proliferation: significantly suppressed
E. coli; concentrations lower than the CMC
  bacterial growth inhibition: did not significantly inhibit bacterial growth
